From patent US10435399B2, “HDAC6 inhibitory heterocyclic compound” (TAKEDA PHARMACEUTICAL COMPANY LIMITED, priority 2017, dated 2019)

biological target: T1, HDAC6 enzyme (Homo sapiens, UniProt Q9UBN7); test: HDAC6 enzyme inhibitory activity (HDAC-Glo I/II Assay kit); format: biochemical; conditions: 10 μM; wells without enzyme = 100% inhibition; read-out: HDAC6 inhibitory rate (%) (10 μM)
T1 construct: transducing full length HDAC6 gene into Sf-9 insect cells; GST; purchased SignalChem; host or cells: Sf-9 insect cells
T1 sequence (Q9UBN7 1-1215): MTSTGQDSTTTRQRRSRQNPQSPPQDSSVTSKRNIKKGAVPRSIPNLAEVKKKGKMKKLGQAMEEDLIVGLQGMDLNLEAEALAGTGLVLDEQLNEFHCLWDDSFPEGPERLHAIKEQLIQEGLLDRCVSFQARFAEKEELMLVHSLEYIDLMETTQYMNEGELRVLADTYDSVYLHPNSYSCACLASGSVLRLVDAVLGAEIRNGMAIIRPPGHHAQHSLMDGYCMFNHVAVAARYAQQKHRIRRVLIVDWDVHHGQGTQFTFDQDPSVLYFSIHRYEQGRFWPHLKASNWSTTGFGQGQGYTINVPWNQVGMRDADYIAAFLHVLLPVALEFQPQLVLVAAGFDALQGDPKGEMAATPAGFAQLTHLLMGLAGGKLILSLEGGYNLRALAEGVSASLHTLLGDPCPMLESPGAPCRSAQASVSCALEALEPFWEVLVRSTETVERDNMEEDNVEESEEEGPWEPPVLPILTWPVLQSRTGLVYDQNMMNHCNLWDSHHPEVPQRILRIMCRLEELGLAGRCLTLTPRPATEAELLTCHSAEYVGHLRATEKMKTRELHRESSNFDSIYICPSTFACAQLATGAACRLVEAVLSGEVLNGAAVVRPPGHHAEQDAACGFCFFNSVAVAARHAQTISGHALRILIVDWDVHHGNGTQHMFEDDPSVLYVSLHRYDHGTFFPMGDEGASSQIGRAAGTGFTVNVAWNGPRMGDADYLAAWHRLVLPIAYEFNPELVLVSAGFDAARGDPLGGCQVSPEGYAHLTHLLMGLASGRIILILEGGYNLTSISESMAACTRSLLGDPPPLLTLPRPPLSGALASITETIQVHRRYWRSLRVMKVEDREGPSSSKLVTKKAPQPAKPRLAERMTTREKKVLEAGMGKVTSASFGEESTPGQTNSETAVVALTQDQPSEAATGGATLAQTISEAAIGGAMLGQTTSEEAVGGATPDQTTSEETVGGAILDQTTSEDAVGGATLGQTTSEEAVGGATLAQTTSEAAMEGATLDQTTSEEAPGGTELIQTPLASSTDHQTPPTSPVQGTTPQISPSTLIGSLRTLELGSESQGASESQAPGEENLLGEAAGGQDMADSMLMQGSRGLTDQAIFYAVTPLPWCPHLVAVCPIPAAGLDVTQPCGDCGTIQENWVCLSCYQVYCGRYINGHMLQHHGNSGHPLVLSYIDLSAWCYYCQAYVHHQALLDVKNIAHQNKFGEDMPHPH
Outline: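 Inhibition is calculated as relative activity, taking luminescence in enzyme-free wells as complete inhibition. The enzyme, full-length and GST-purified after Sf-9 expression, was exposed to compound for 60 min at room temperature before a 20 min HDAC-Glo reaction.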

Structure (SMILES) | inhibition at 10 µM [%]
O=C1c2cc(-c3nnc(C(F)F)o3)ccc2CN1CCOc1ccccc1 [Example 209, 6-(5-(difluoromethyl)-1,3,4-oxadiazol-2-yl)-2-(2-phenoxyethyl)isoindolin-1-one] | 107
CCC(F)(F)C(=O)N[C@@H]1CCCC[C@H]1N1Cc2c(F)cc(-c3nnc(C(F)F)o3)cc2C1=O [Example 210, N-((1R,2R)-2-(6-(5-(difluoromethyl)-1,3,4-oxadiazol-2-yl)-4-fluoro-1-oxo-1,3-dihydro-2H-isoindol-2-yl)cyclohexyl)-2,2-difluorobutanamide] | 101
CC1(C(=O)N[C@@H]2CCCC[C@H]2N2Cc3c(F)cc(-c4nnc(C(F)F)o4)cc3C2=O)COC1 [Example 211, N-((1R,2R)-2-(6-(5-(difluoromethyl)-1,3,4-oxadiazol-2-yl)-4-fluoro-1-oxo-1,3-dihydro-2H-isoindol-2-yl)cyclohexyl)-3-methyloxetane-3-carboxamide] | 100
O=C1c2cc(-c3nnc(C(F)F)o3)cc(F)c2CN1[C@@H]1CCOC[C@H]1NC(=O)C1(C(F)(F)F)CCC1 [Example 212, N-((3S,4R)-4-(6-(5-(difluoromethyl)-1,3,4-oxadiazol-2-yl)-4-fluoro-1-oxo-1,3-dihydro-2H-isoindol-2-yl)tetrahydro-2H-pyran-3-yl)-1-(trifluoromethyl)cyclobutanecarboxamide] | 101
CC(C)(OC(=O)N[C@@H]1COCC[C@H]1N1Cc2c(F)cc(-c3nnc(C(F)F)o3)cc2C1=O)C(F)(F)F [Example 213, 1,1,1-trifluoro-2-methylpropan-2-yl ((3S,4R)-4-(6-(5-(difluoromethyl)-1,3,4-oxadiazol-2-yl)-4-fluoro-1-oxo-1,3-dihydro-2H-isoindol-2-yl)tetrahydro-2H-pyran-3-yl)carbamate] | 100
CC(C)(F)C(=O)N[C@@H]1CCCC[C@H]1N1Cc2ncc(-c3nnc(C(F)F)o3)cc2C1=O [Example 214, N-((1R,2R)-2-(3-(5-(difluoromethyl)-1,3,4-oxadiazol-2-yl)-5-oxo-5,7-dihydro-6H-pyrrolo[3,4-b]pyridin-6-yl)cyclohexyl)-2-fluoro-2-methylpropanamide] | 100
O=C1c2cc(-c3nnc(C(F)F)o3)cnc2CN1[C@@H]1CCCC[C@H]1NC(=O)C(F)(F)F [Example 215, N-((1R,2R)-2-(3-(5-(difluoromethyl)-1,3,4-oxadiazol-2-yl)-5-oxo-5,7-dihydro-6H-pyrrolo[3,4-b]pyridin-6-yl)cyclohexyl)-2,2,2-trifluoroacetamide] | 101
O=C1c2cc(-c3nnc(C(F)F)o3)cnc2CN1[C@@H]1CCCC[C@H]1NC(=O)C1(F)CC1 [Example 216, N-((1R,2R)-2-(3-(5-(difluoromethyl)-1,3,4-oxadiazol-2-yl)-5-oxo-5,7-dihydro-6H-pyrrolo[3,4-b]pyridin-6-yl)cyclohexyl)-1-fluorocyclopropanecarboxamide] | 100
CC(C)(C(=O)N[C@@H]1CCCC[C@H]1N1Cc2ncc(-c3nnc(C(F)F)o3)cc2C1=O)C(F)(F)F [Example 217, N-((1R,2R)-2-(3-(5-(difluoromethyl)-1,3,4-oxadiazol-2-yl)-5-oxo-5,7-dihydro-6H-pyrrolo[3,4-b]pyridin-6-yl)cyclohexyl)-3,3,3-trifluoro-2,2-dimethylpropanamide] | 98
O=C1c2cc(-c3nnc(C(F)F)o3)cnc2CN1[C@@H]1CCCC[C@H]1NC(=O)C1(F)CCC1 [Example 218, N-((1R,2R)-2-(3-(5-(difluoromethyl)-1,3,4-oxadiazol-2-yl)-5-oxo-5,7-dihydro-6H-pyrrolo[3,4-b]pyridin-6-yl)cyclohexyl)-1-fluorocyclobutanecarboxamide] | 100
O=C1c2cc(-c3nnc(C(F)F)o3)cnc2CN1[C@@H]1CCCC[C@H]1NC(=O)C1(C(F)(F)F)CCC1 [Example 219] | 100
O=C1c2cc(-c3nnc(C(F)F)o3)ccc2CN1[C@@H]1CCCC[C@H]1O [Example 220, 6-(5-(difluoromethyl)-1,3,4-oxadiazol-yl)-2-((1R,2R)-2-hydroxycyclohexyl)-isoindolin-1-one] | 94
O=C1c2cc(-c3nnc(C(F)F)o3)cnc2CN1[C@@H]1CCCC[C@H]1NC(=O)C1(c2ccc(F)cc2)CC1 [Example 221, N-((1R,2R)-2-(3-(5-(difluoromethyl)-1,3,4-oxadiazol-2-yl)-5-oxo-5,7-dihydro-6H-pyrrolo[3,4-b]pyridin-6-yl)cyclohexyl)-1-(4-fluorophenyl)-cyclopropanecarboxamide] | 101
O=C(N[C@@H]1CCCC[C@H]1N1Cc2ncc(-c3nnc(C(F)F)o3)cc2C1=O)c1ccccc1F [Example 222, N-((1R,2R)-2-(3-(5-(difluoromethyl)-1,3,4-oxadiazol-2-yl)-5-oxo-5,7-dihydro-6H-pyrrolo[3,4-b]pyridin-6-yl)cyclohexyl)-2-fluorobenzamide] | 99
N#Cc1ccccc1C(=O)N[C@@H]1CCCC[C@H]1N1Cc2ncc(-c3nnc(C(F)F)o3)cc2C1=O [Example 223, 2-cyano-N-((1R,2R)-2-(3-(5-(difluoro-methyl)-1,3,4-oxadiazol-2-yl)-5-oxo-5,7-dihydro-6H-pyrrolo[3,4-b]-pyridin-6-yl)cyclohexyl)benzamide] | 99
O=C(N[C@@H]1CCCC[C@H]1N1Cc2ncc(-c3nnc(C(F)F)o3)cc2C1=O)c1cccc(F)c1 [Example 224, N-((1R,2R)-2-(3-(5-(difluoromethyl)-1,3,4-oxadiazol-2-yl)-5-oxo-5,7-dihydro-6H-pyrrolo[3,4-b]pyridin-6-yl)cyclohexyl)-3-fluorobenzamide] | 100
N#Cc1cccc(C(=O)N[C@@H]2CCCC[C@H]2N2Cc3ncc(-c4nnc(C(F)F)o4)cc3C2=O)c1 [Example 225, 3-cyano-N-((1R,2R)-2-(3-(5-(difluoro-methyl)-1,3,4-oxadiazol-2-yl)-5-oxo-5,7-dihydro-6H-pyrrolo[3,4-b]pyridin-6-yl)cyclohexyl)benzamide] | 98
O=C(N[C@@H]1CCCC[C@H]1N1Cc2ncc(-c3nnc(C(F)F)o3)cc2C1=O)c1cccc(C(F)(F)F)c1 [Example 226, N-((1R,2R)-2-(3-(5-(difluoromethyl)-1,3,4-oxadiazol-2-yl)-5-oxo-5,7-dihydro-6H-pyrrolo[3,4-b]pyridin-6-yl)cyclohexyl)-3-(trifluoromethyl)-benzamide] | 99
O=C1c2cc(-c3nnc(C(F)F)o3)cc(F)c2CN1C[C@H]1COCCN1CC(F)(F)C(F)(F)F [Example 227, 6-(5-(difluoromethyl)-1.3,4-oxadiazol-2-yl)-4-fluoro-2-(((3S)-4-(2,2,3,3,3-pentafluoropropyl)morpholin-3-yl)-methyl)isoindolin-1-one] | 100
O=C1c2cc(-c3nnc(C(F)F)o3)cc(F)c2CN1C[C@H]1COCCN1CC(F)(F)C(F)F [Example 228, 6-(5-(difluoromethyl)-1,3,4-oxadiazol-2-yl)-4-fluoro-2-(((3S)-4-(2,2,3,3-tetrafluoropropyl)morpholin-3-yl)-methyl)isoindolin-1-one] | 98
N#Cc1ccccc1-c1ccccc1N1Cc2ccc(-c3nnc(C(F)F)o3)cc2C1=O [Example 230, 2′-(6-(5-(difluoromethyl)-1,3,4-oxadiazol-2-yl)-1-oxo-1,3-dihydro-2H-isoindol-2-yl)-biphenyl-2-carbonitrile] | 100
N[C@@H]1CCCC[C@H]1N1Cc2ncc(-c3nnc(C(F)F)o3)cc2C1=O [Example 231, 6-((1R,2R)-2-aminocyclohexyl)-3-(5-(difluoromethyl)-1,3,4-oxadiazol-2-yl)-6,7-dihydro-5H-pyrrolo[3,4-b]pyridin-5-one] | 98

same assay, conditions: read-out: HDAC6 inhibitory rate (%) (10 μM)

Structure (SMILES) | inhibition at 10 µM [%]
O=C1c2cc(-c3nnc(C(F)F)o3)cc(F)c2CN1C[C@H]1COCCN1CC(F)(F)C(F)(F)C(F)(F)F [Example 229, 6-(5-(difluoromethyl)-1,3,4-oxadiazol-2-yl)-4-fluoro-2-(((3S)-4-(2,2,3,3,4,4,4-heptafluorobutyl)-morpholin-3-yl)methyl)isoindolin-1-one] | 100
